# Read-outs that look alike come from different tables or passages of the source.
# What was measured:
# [1] = tested on: HI650 (Lung Adenocarcinoma); assay: Cell viability analysis, lung cancer HI650; type: cell-based, human
# [2] = tested on: BCC (basal cell carcinoma); assay: Cell viability analysis, skin cancer BCC; type: cell-based, human
# [3] = tested on: 786-O (Renal adenocarcinoma); assay: Cell viability analysis, renal cancer 786-O; type: cell-based, human
# [4] = tested on: LoVo (Colorectal Adenocarcinoma); assay: Cell viability analysis, colon cancer LoVo; type: cell-based, human
# [5] = tested on: A549 (Lung Adenocarcinoma); assay: Cell viability analysis, lung cancer A549; type: cell-based, human
# T24 = assay: Cell viability analysis, bladder cancer T24; type: cell-based, human
# [6] = tested on: C-33A (Cervical carcinoma); assay: Cell viability analysis, cervical cancer C-33A; type: cell-based, human
# [7] = tested on: HeLa (Cervix Adenocarcinoma); assay: Cell viability analysis, cervical cancer HeLa; type: cell-based, human
# [8] = tested on: MDA-MB-231 (Mammary Gland, Adenocarcinoma); assay: Cell viability analysis, breast cancer MDA-MB-231; type: cell-based, human
# U-2OS = assay: Cell viability analysis, osteosarcoma U-2OS; type: cell-based, human
# BxPC-3 = assay: Cell viability analysis, pancreatic cancer BxPC-3; type: cell-based, human
# [9] = tested on: HepG2 (Hepatocellular Carcinoma); assay: Cell viability analysis, hepatic cancer HepG2; type: cell-based, human
# TOV-21G = assay: Cell viability analysis, ovarian cancer TOV-21G; type: cell-based, human
# [10] = tested on: SAS (Tongue squamous cell carcinoma); assay: Cell viability analysis, tongue cancer SAS; type: cell-based, human
# AsPC-1 = assay: Cell viability analysis, pancreatic cancer AsPC-1; type: cell-based, human
# [11] = tested on: PC3 (p53−) (Prostate Adenocarcinoma); assay: Cell viability analysis, prostate cancer PC3; type: cell-based, human
# NIH: OVCAR-3 = assay: Cell viability analysis, ovarian cancer NIH: OVCAR-3; type: cell-based, human
# [12] = tested on: Hep3B (hepatocellular carcinoma); assay: Cell viability analysis, hepatic cancer Hep3B; type: cell-based, human
# [13] = tested on: A375 (Amelanotic Melanoma); assay: Cell viability analysis, skin cancer A375; type: cell-based, human
# [14] = tested on: TSGH-8301 (Urinary Bladder Carcinoma); assay: Cell viability analysis, bladder cancer TSGH-8301; type: cell-based, human
# [15] = tested on: HCT116 (p53+) (Colorectal Carcinoma)
# [16] = tested on: MCF7 (Mammary Gland, Adenocarcinoma); assay: Cell viability analysis, breast cancer MCF7; type: cell-based, human
# [17] = tested on: AGS (Gastric Adenocarcinoma); assay: Cell viability analysis, gastric cancer AGS; type: cell-based, human
# [18] = tested on: MKN-45 (Gastric Adenocarcinoma); assay: Cell viability analysis, gastric cancer MKN-45; type: cell-based, human
smiles,measurement,setting,value
COC(=O)Nc1nc2cc(C(=O)c3ccc(F)cc3)ccc2[nH]1 [Flubendazole (Flutelmium)],"The results of antibiotic drug inhibiting cancer cell lines (cell viability analysis), H1650","[1]; H1650, repeated experiment",35.69
same,"The results of antibiotic drug inhibiting cancer cell lines (cell viability analysis), BCC","[2]; BCC, repeated experiment",31.79
same,"The results of antibiotic drug inhibiting cancer cell lines (cell viability analysis), 786-O","[3]; 786-O, repeated experiment",20.97
same,"The results of antibiotic drug inhibiting cancer cell lines (cell viability analysis), LoVo","[4]; LoVo, repeated experiment",53.35
same,"The results of antibiotic drug inhibiting cancer cell lines (cell viability analysis), A549","[5]; A549, repeated experiment",22.71
same,"The results of antibiotic drug inhibiting cancer cell lines (cell viability analysis), T24","T24; T24, repeated experiment",34.67
same,"The results of antibiotic drug inhibiting cancer cell lines (cell viability analysis), C-33A","[6]; C-33A, repeated experiment",46.4
same,"The results of antibiotic drug inhibiting cancer cell lines (cell viability analysis), HeLa","[7]; HeLa, repeated experiment",25.78
same,"The results of antibiotic drug inhibiting cancer cell lines (cell viability analysis), MDA-MB231","[8]; MDA-MB231, repeated experiment",43.43
same,"The results of antibiotic drug inhibiting cancer cell lines (cell viability analysis), U2OS","U-2OS; U2OS, repeated experiment",48.74
same,"The results of antibiotic drug inhibiting cancer cell lines (cell viability analysis), BxPC-3","BxPC-3; BxPC-3, repeated experiment",32.76
same,"The results of antibiotic drug inhibiting cancer cell lines (cell viability analysis), HepG2","[9]; HepG2, repeated experiment",56.8
same,"The results of antibiotic drug inhibiting cancer cell lines (cell viability analysis), TOV-21G","TOV-21G; TOV-21G, repeated experiment",24.84
same,"The results of antibiotic drug inhibiting cancer cell lines (cell viability analysis), SAS","[10]; SAS, repeated experiment",45.16
same,"The results of antibiotic drug inhibiting cancer cell lines (cell viability analysis), AsPC-1","AsPC-1; AsPC-1, repeated experiment",35.53
same,"The results of antibiotic drug inhibiting cancer cell lines (cell viability analysis), PC-3",[11],32.11
same,"The results of antibiotic drug inhibiting cancer cell lines (cell viability analysis), NIH-OVCAR-3","NIH: OVCAR-3; NIH-OVCAR-3, repeated experiment",59.15
same,"The results of antibiotic drug inhibiting cancer cell lines (cell viability analysis), Hep3B","[12]; Hep3B, repeated experiment",56.93
same,"The results of antibiotic drug inhibiting cancer cell lines (cell viability analysis), A375","[13]; A375, repeated experiment",30.32
same,"The results of antibiotic drug inhibiting cancer cell lines (cell viability analysis), TSGH-8301","[14]; TSGH-8301, repeated experiment",45.64
same,"The results of antibiotic drug inhibiting cancer cell lines (cell viability analysis), HCT116",[15],20.63
same,"The results of antibiotic drug inhibiting cancer cell lines (cell viability analysis), MCF-7","[16]; MCF-7, repeated experiment",55.01
same,"The results of antibiotic drug inhibiting cancer cell lines (cell viability analysis), AGS","[17]; AGS, repeated experiment",28.25
same,"The results of antibiotic drug inhibiting cancer cell lines (cell viability analysis), MKN-45",[18],63.06
O=C(Nc1ccc([N+](=O)[O-])cc1Cl)c1cc(Cl)ccc1O [Niclosamide (Niclocide)],"The results of antibiotic drug inhibiting cancer cell lines (cell viability analysis), H1650",[1],36.77
same,"The results of antibiotic drug inhibiting cancer cell lines (cell viability analysis), BCC",[2],30.66
same,"The results of antibiotic drug inhibiting cancer cell lines (cell viability analysis), 786-O",[3],25.52
same,"The results of antibiotic drug inhibiting cancer cell lines (cell viability analysis), LoVo",[4],41.95
same,"The results of antibiotic drug inhibiting cancer cell lines (cell viability analysis), A549",[5],16.68
same,"The results of antibiotic drug inhibiting cancer cell lines (cell viability analysis), T24",T24,26.49
same,"The results of antibiotic drug inhibiting cancer cell lines (cell viability analysis), C-33A",[6],39.49
same,"The results of antibiotic drug inhibiting cancer cell lines (cell viability analysis), HeLa",[7],25.4
same,"The results of antibiotic drug inhibiting cancer cell lines (cell viability analysis), MDA-MB231",[8],37.69
same,"The results of antibiotic drug inhibiting cancer cell lines (cell viability analysis), U2OS",U-2OS,26.74
same,"The results of antibiotic drug inhibiting cancer cell lines (cell viability analysis), BxPC-3",BxPC-3,41.93
same,"The results of antibiotic drug inhibiting cancer cell lines (cell viability analysis), HepG2",[9],37.55
same,"The results of antibiotic drug inhibiting cancer cell lines (cell viability analysis), TOV-21G",TOV-21G,17.59
same,"The results of antibiotic drug inhibiting cancer cell lines (cell viability analysis), SAS",[10],23.94
same,"The results of antibiotic drug inhibiting cancer cell lines (cell viability analysis), AsPC-1",AsPC-1,40.72
same,"The results of antibiotic drug inhibiting cancer cell lines (cell viability analysis), PC-3",[11],42.84
same,"The results of antibiotic drug inhibiting cancer cell lines (cell viability analysis), NIH-OVCAR-3",NIH: OVCAR-3,54.68
same,"The results of antibiotic drug inhibiting cancer cell lines (cell viability analysis), Hep3B",[12],60.79
same,"The results of antibiotic drug inhibiting cancer cell lines (cell viability analysis), A375",[13],20.26
same,"The results of antibiotic drug inhibiting cancer cell lines (cell viability analysis), TSGH-8301",[14],35.94
same,viability,[15],23.9%
same,"The results of antibiotic drug inhibiting cancer cell lines (cell viability analysis), MCF-7",[16],33.36
same,"The results of antibiotic drug inhibiting cancer cell lines (cell viability analysis), AGS",[17],23.05
same,"The results of antibiotic drug inhibiting cancer cell lines (cell viability analysis), MKN-45",[18],50.74
